{"source": "patent US20250263404A1", "about": "“AMINOPYRIDINES AS ACTIVATORS OF PI3 KINASE” (UCL Business Ltd, priority 2021, published 2025)", "key": {"[1]": {"system": "PIP3 production in A549 cells", "test": "TIRF microscopy of PIP3 reporter in A549 cells", "type": "cell-based, human", "text": "Class I PI3Ks convert the PtdIns(4,5)P2 lipid in the plasma membrane to PtdIns(3,4,5)P3 (or PIP3) which is converted to PtdIns(3,4)P2 by the action of 5-phosphatases. The inventors therefore tested whether stimulation of cells with 1938 led to the generation of PIP3 and PI(3,4)P2 using live imaging in cells expressing fluorescent biosensors that selectively bind these lipids. […] This PIP3 peak was followed by the generation of membrane-associated PI(3,4)P2 (FIG. 3aiii), with a timing in line with the known mechanism of cellular generation of PI(3,4)P2 from PIP3 by the action of 5-phosphatases. Similar kinetics of PIP3 and PI(3,4)P2 production have previously been reported in HeLa cells stimulated with insulin. […]\nImage analyses of total reporter intensities were performed with the Fiji open source image analysis package. The region of interest (ROI) corresponding to the footprint of the individual cell across time points were defined using minimal intensity projection to select only pixels present across all time points, following prior subtraction of camera noise (rolling ball method, radius=500 pixels) and xy drift correction, intensity levels over time were measured. […] All other quantifications were performed using the open source software R/RStudio. […]"}, "[2]": {"system": "133 protein kinases and 7 lipid kinases", "test": "SelectScreen kinase profiling panel", "type": "biochemical", "protocol": "133 protein kinases and 7 lipid kinases were counterscreened, with […] used at 1 μM, using the Adapta, Lantha and Z-LYTE assays (SelectScreen Kinase Profiling Service; Thermofisher—experimental details of these assays can be found here: https://www.thermofisher.com/uk/en/home/industrial/pharma-biopharma/drug-discovery-development/target-and-lead-identification-and-validation/kinasebiology/kinase-activity-assays.html. The tree representation in KinMap generated courtesy of Cell Signaling Technology, Inc. (www.cellsignal.com). mTORC1 (mTOR/RAPTOR/LST8) protein complex and ATM kinase and substrates were produced as previously described (Anandapadamanaban, M. et al. Science (New York, NY 366, 203-210 (2019); Baretic, D. et al. Sci Adv 3, e1700933 (2017). Screening of 1938 was conducted using SuperSep Phos-Tag 50 μmol/l 100×100×6.6 mm 17-well (192-18001/199-18011) gels. For ATM assays, 100 nM ATM was incubated for 30 min at 30° C. with 5 μM GST-p53 and 1 mM ATP, in the absence or presence of 200 μM 1938 in ATM Kinase Buffer (50 mM HEPES pH 7.5, 100 mM NaCl, 10% glycerol, 2 mM […], 5 mM MgCl2). […] Gels were then stained using InstantBlue™ Coomassie stain, and then quantified using BioRad Image Lab Software. […]"}}, "data": [{"compound": "CCN1CCN(c2ccc(Nc3cc(Nc4cccc5c4N(C(C)=O)CC5)ccn3)cc2)CC1", "note": "[Example 1938]", "values": [{"measurement": "PIP3 signal in PIK3CA-null A549 cells", "setting": "[1]; PIK3CA-null A549 cells", "value": "did not increase"}, {"measurement": "time to plasma membrane-associated PIP3 production", "setting": "[1]; serum-starved A549 cells", "value": "less than 3 min"}, {"measurement": "number of protein kinases inhibited between 25-50%", "setting": "[2]; 1 μM of 1938", "value": 13}, {"measurement": "activity of other PI3K isoforms and PI3K-related kinases in the panel", "setting": "[2]; PI3Kβ, PI3Kγ, PI3Kδ, PI3K-C2α, Vps34, PI4Kβ, mTOR, DNA-PK, 1 μM", "value": "did not affect"}]}]}
